# Data taken from patent publication US20250064947A1, “CYTOTOXICITY TARGETING CHIMERAS FOR FIBROBLAST ACTIVATION PROTEIN-EXPRESSING CELLS” (Glaxosmithkline Intellectual Property Development Limited, priority 2022, published 2025).
# Molecular target: T1, FAP (Homo sapiens, UniProt Q12884)
# T1 construct: Target cells: WI-38 cells (typically 1000-20,000 cells per well); endogenous in cells; host or cells: WI-38 cells
# T1 sequence (Q12884 1-760): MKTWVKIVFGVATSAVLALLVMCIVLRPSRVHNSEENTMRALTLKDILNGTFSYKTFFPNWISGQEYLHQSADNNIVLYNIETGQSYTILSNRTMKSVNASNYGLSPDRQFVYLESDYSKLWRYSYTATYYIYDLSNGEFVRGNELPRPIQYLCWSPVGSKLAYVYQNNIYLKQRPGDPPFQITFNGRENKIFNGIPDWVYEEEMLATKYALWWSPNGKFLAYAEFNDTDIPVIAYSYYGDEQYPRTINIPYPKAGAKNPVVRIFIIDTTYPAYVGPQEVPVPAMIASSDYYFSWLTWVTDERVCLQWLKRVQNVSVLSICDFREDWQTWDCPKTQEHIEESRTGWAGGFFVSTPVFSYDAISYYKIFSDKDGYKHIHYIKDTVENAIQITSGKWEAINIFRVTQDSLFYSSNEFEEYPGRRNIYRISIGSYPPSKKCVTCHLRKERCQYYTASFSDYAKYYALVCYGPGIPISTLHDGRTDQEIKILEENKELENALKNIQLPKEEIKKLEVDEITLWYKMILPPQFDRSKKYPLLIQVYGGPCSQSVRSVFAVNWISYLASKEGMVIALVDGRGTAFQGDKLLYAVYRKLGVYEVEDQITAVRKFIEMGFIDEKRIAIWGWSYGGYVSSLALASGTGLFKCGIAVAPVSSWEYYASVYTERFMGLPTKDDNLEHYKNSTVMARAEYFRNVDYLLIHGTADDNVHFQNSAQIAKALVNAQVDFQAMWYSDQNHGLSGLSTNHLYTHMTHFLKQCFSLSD
# Assay: Antibody dependent cellular cytotoxicity (ADCC) reporter assay
# Assay type: cell-based
# Details: WI-38 target cells; Jurkat FcγRIIIa NFAT-luciferase reporter cells; with anti-cotinine antibody (SEQ ID NO: 11/12); 12-18 hours; average if more than one run; read-out: ADCC Reporter Assay pEC50 (converted)
# Procedure: An antibody dependent cellular cytotoxicity (ADCC) reporter assay was conducted using the following four assay components: (i) ARM compound of Formula (I) targeting FAP (concentrations ranging from […]); (ii) anti-cotinine antibody having a heavy chain sequence of SEQ ID NO: 11 and a light chain sequence of SEQ ID NO: 12 (rabbit variable region with human IgG1 Fc domain containing DE mutation (S239D/I332E)) (concentrations ranging from 0.01 μg/mL 200 μg/mL); (iii) Target cells: WI-38 cells (typically 1000-20,000 cells per well); and (iv) Reporter cells—Jurkat cells engineered to express FcγRIIIa with a reporter gene luciferase under the control of the NFAT promoter (typically 3000-75,000 cells per well). Reagents were combined in final volume of 20 μL in 384—well tissue culture treated plate. All four assay components were incubated together for about 12-18 hours. Thereafter, BioGlo Detection reagent (Promega) was added to the wells to lyse the cells and provide a substrate for the luciferase reporter protein.
# Luminescence signal was measured on a microplate reader capable of measuring luminescence and signal:background was calculated by dividing the signal of a test well by the signal obtained when no compound of formula (I) was included in the assay. EC50 calculations were done using Graphpad Prism Software, specifically a nonlinear regression curve fit (Y=Bottom+(Top−Bottom)/(1+10^((Log EC50−X)*HillSlope))).
# ARMs compounds of Formula (I) were tested for ADCC activity in the above assay in one or more experimental runs and the results are shown in Table 3 below. Potency of the compounds of Formula (I) is reported as a pEC50 values. The pEC50 value is the negative log of the EC50 value, wherein the EC50 value is half maximal effective concentration measured in molar (M). For compounds tested in more than one experimental run, the pEC50 value is reported as an average.
row,Compound,EC50 [nM]
1,"CN1C(=O)C[C@H](C(=O)NCCOCCOCCOCCOCCOCCOCCOCCOCCOCCOCCOCCOCCOCCOCCOCCNC(=O)COc2ccc3c(C(=O)NCC(=O)N4CC(F)(F)C[C@H]4C#N)ccnc3c2)[C@H]1c1cccnc1 [Example 11, N-(2-((S)-2-cyano-4,4-difluoropyrrolidin-1-yl)-2-oxoethyl)-7-((1-((2S,3S)-1-methyl-5-oxo-2-(pyridin-3-yl)pyrrolidin-3-yl)-1,51-dioxo-5,8,11,14,17,20,23,26,29,32,35,38,41,44,47-pentadecaoxa-2,50-diazadopentacontan-52-yl)oxy)quinoline-4-carboxamide]",> 1000
2,"CN1C(=O)C[C@H](C(=O)NCCOCCOCCOCCOCCOCCOCCOCCOCCOCCOCCOCCOCCOCCOCCOCCOCCOCCOCCOCCOCCOCCOCCOCCNC(=O)COc2ccc3c(C(=O)NCC(=O)N4CCC[C@H]4C#N)ccnc3c2)[C@H]1c1cccnc1 [Example 12, N-(2-((S)-2-cyanopyrrolidin-1-yl)-2-oxoethyl)-7-((1-((2S,3S)-1-methyl-5-oxo-2-(pyridin-3-yl)pyrrolidin-3-yl)-1,75-dioxo-5,8,11,14,17,20,23,26,29,32,35,38,41,44,47,50,53,56,59,62,65,68,71-tricosaoxa-2,74-diazahexaheptacontan-76-yl)oxy)quinoline-4-carboxamide]",1
3,"CN1C(=O)C[C@H](C(=O)NCCOCCOCCOCCOCCOCCOCCOCCOCCOCCOCCOCCOCCOCCOCCOCCOCCOCCOCCOCCOCCOCCOCCOCCNC(=O)COc2ccc3c(C(=O)NCC(=O)N4CC(F)(F)C[C@H]4C#N)ccnc3c2)[C@H]1c1cccnc1 [Example 13, N-(2-((S)-2-cyano-4,4-difluoropyrrolidin-1-yl)-2-oxoethyl)-7-((1-((2S,3S)-1-methyl-5-oxo-2-(pyridin-3-yl)pyrrolidin-3-yl)-1,75-dioxo-5,8,11,14,17,20,23,26,29,32,35,38,41,44,47,50,53,56,59,62,65,68,71-tricosaoxa-2,74-diazahexaheptacontan-76-yl)oxy)quinoline-4-carboxamide]",1
